Assay results taken from patent US20260199365A1, “BIS-SULFONAMIDE SHIP1 ACTIVATORS” (The Research Foundation for the State University of New York, priority 2022, published 2026).

Biological target: T1, recombinant human truncated SHIP1 (tSHIP1) (Homo sapiens, UniProt Q92835)
T1 construct: tSHIP1 (SHIP1, residues 397-864) was amplified from pET24TEV-tSHIP1; His tag; made in house; host or cells: E. coli BL21
T1 sequence (Q92835 397-864): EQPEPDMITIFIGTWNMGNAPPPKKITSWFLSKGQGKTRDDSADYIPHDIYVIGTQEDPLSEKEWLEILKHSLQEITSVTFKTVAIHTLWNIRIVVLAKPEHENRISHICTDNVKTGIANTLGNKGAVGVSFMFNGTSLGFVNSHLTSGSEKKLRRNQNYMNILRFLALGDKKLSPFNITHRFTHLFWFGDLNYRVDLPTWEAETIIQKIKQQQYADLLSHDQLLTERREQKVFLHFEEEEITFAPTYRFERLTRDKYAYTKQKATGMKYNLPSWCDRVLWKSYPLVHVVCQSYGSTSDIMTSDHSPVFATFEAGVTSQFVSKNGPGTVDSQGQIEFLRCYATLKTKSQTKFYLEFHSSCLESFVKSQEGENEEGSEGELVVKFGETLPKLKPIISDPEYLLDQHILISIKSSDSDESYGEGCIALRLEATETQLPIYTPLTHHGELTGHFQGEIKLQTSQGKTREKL
Assay: Malachite Green Phosphatase Release Assay (SHIP1 phosphatase activity)
Type: biochemical
Details: for Phosphatase activity in the Malachite Green Assay, analog concentration 125 μM: 125 μM analog; for Phosphatase activity in the Malachite Green Assay, analog concentration 125 μM / Phosphatase activity in the Malachite Green Assay, analog concentration 250 μM / Phosphatase activity in the Malachite Green Assay, analog concentration 500 μM: 100 μM PI(3,4,5)P3-diC8 substrate, normalized to vehicle control (DMSO) = 100%; for Phosphatase activity in the Malachite Green Assay, analog concentration 250 μM: 250 μM analog; for Phosphatase activity in the Malachite Green Assay, analog concentration 500 μM: 500 μM analog, >100% activation, <100% inhibition; for SHIP1 activator activity in the malachite green assay: discussion of Table 4 (125-500 μM); for Malachite (SHIP1), 125 μM / Malachite (SHIP1), 250 μM / Malachite (SHIP1), 500 μM: bis-sulfonamide hybrids
Procedure: ^aPhosphatase activity for SHIP1 and SHIP2 enzyme as determined in the malachite green assay. Results were normalized to the phosphatase activity level from vehicle control (DMSO) used as 100% activity. Values >100% are attributed to activation, while values <100% show inhibition of the enzyme compared to the control. The assay was performed at the indicated concentration of the small molecule with 100 μM PI(3,4,5)P3-diC8 as the substrate. ^bnd=not determined, compound 23 was insoluble.
Cloning and expression of tSHIP1 of truncated human SHIP1 protein (tSHIP1) from human whole blood mRNA have been previously described (see Brooks R, Iyer, S., Akada, H., Neelam, S., Russo, C. M., Chisholm, J. D., and Kerr W. G. Coordinate Expansion of Murine Hematopoietic and Mesenchymal Stem Cell Compartments by SHIPi Stem Cells 2015; 33:848). Briefly, tSHIP1 (SHIP1, residues 397-864) was amplified from pET24TEV-tSHIP1. Plasmids were extracted with Midi Prep (Qiagen) and sequences were verified by sequencing of the entire expression regions. The plasmids were then transformed into E. coli BL21 (New England Biolabs). Fresh colonies were amplified in 1 L LB at 37° C., shaking at 250 rpm until OD600 nm reached 0.6. Protein expression was induced with […] IPTG and incubation was continued at 16° C., shaking at 250 rpm for 16 h. Following centrifugation, bacteria pellets were stored overnight at −20° C. Protein was extracted form bacterial cell pellet using BugBuster HT (Millipore), according to manufacturer's recommendations. The His-tagged protein was purified by FPLC using HisTrapHP 5 ml column (Cytiva Life Sciences) at a 5 ml/min flow rate and 10 mM-1M imidazole gradient in Buffer A (20 mM Tris pH 8.0, 300 mM NaCl, 10 mM imidazole, 5 mM β-mercaptoethanol). Fractions containing active protein by Malachite Green Phosphatase Release Assay (Echelon, see below) were pooled, concentrated and buffer exchanged to reduce imidazole concentration by centrifugation using Pierce Protein Concentrators 30KMWCO PES, (ThermoFisher Scientific). Protein was aliquoted and stored at −80° C. in a mixture of Buffer A (without β-ME) and 50% glycerol.
Malachite Green Phosphatase Release Assays: Malachite Green Phosphatase Release Assays (Echelon Biosciences) were performed with recombinant human truncated SHIP1 (tSHIP1) (Brooks, 2015) and SHIP2 (Echelon Biosciences). Briefly, serial dilutions of the compounds dissolved in DMSO were added to the recombinant enzymes diluted in reaction buffer Rx (50 mM Hepes pH 7.4, 150 mM NaCl, 1 mM MgCl2, 0.25 mM EDTA) in triplicate reactions in 96-well plates. Reactions were incubated for 2 min at room temperature. […] of 1 mM Phosphatidylinositol 3,4,5-trisphosphate diC8 (PI(3,4,5)P3diC8) (Echelon Biosciences) was added to each reaction to a final concentration of 100 μM in a final volume of […]. Following 20 min incubation at 37° C., 100 μL of Malachite Green Solution (Echelon Biosciences) was added to each well and plates were incubated at room temperature in the dark for 15 min. Plates were then read at 620 nm on a plate reader (Synergy 2, BioTek).

| SMILES | Phosphatase activity in the Malachite Green Assay, analog concentration 125 μM [%] | Phosphatase activity in the Malachite Green Assay, analog concentration 250 μM [%] | Phosphatase activity in the Malachite Green Assay, analog concentration 500 μM [%] | SHIP1 activator activity in the malachite green assay | Malachite (SHIP1), 125 μM [%] | Malachite (SHIP1), 250 μM [%] | Malachite (SHIP1), 500 μM [%] |
| --- | --- | --- | --- | --- | --- | --- | --- |
| O=C(CNS(=O)(=O)c1ccc(F)cc1)Nc1cc(S(=O)(=O)N2CCSCC2)sc1Cl [Compound K401, N-[2-Chloro-5-(thiomorpholine-4-sulfonyl)thiophen-3-yl]-2-(4-fluorobenzenesulfonamido) acetamide] | 102 | 109 | 125 | nearly equipotent as the parent K306 structure | – | – | – |
| O=C(Nc1ccc(S(=O)(=O)N2CCCCC2)cc1)[C@@H]1CCCN1S(=O)(=O)c1ccccc1C(F)(F)F [Compound K420] | – | – | – | – | 99 | 112 | 138 |
| Cc1sc(S(=O)(=O)N2CCCCC2)cc1NC(=O)[C@@H]1CCCN1S(=O)(=O)c1ccccc1C(F)(F)F [Compound K421] | – | – | – | – | 96 | 122 | 158 |
| Cc1sc(S(=O)(=O)N2CCCCC2)cc1NC(=O)[C@@H]1CCCN1S(=O)(=O)c1ccc(C(F)(F)F)cc1 [Compound K422] | – | – | – | – | 96 | 103 | 126 |
| CCCCNS(=O)(=O)c1ccc(NC(=O)[C@@H]2CCCN2S(=O)(=O)c2ccccc2C(F)(F)F)cc1 [Compound K424] | – | – | – | – | 79 | 84 | 91 |
| CCCCNS(=O)(=O)c1ccc(NC(=O)[C@@H]2CCCN2S(=O)(=O)c2ccc(C(F)(F)F)cc2)cc1 [Compound K425] | – | – | – | – | 75 | 80 | 81 |
| O=C(CNS(=O)(=O)c1ccc(C(F)(F)F)cc1)Nc1ccc(S(=O)(=O)N2CCCCC2)cc1 [Compound K426] | – | – | – | – | 75 | 63 | 74 |
| O=C(CNS(=O)(=O)c1ccccc1C(F)(F)F)Nc1ccc(S(=O)(=O)N2CCCCC2)cc1 [Compound K427] | – | – | – | – | 80 | 88 | 116 |

The remaining lines, values ahead:

| Phosphatase activity in the Malachite Green Assay, analog concentration 125 μM [%] | Phosphatase activity in the Malachite Green Assay, analog concentration 250 μM [%] | Phosphatase activity in the Malachite Green Assay, analog concentration 500 μM [%] | SHIP1 activator activity in the malachite green assay | Malachite (SHIP1), 125 μM [%] | Malachite (SHIP1), 250 μM [%] | Malachite (SHIP1), 500 μM [%] | SMILES |
| --- | --- | --- | --- | --- | --- | --- | --- |
| 117 | 133 | 163 | quite active | – | – | – | Cc1sc(S(=O)(=O)N2CCSCC2)cc1NC(=O)CNS(=O)(=O)c1ccccc1[N+](=O)[O-] [Compound K391, N-[2-Methyl-5-(thiomorpholine-4-sulfonyl)thiophen-3-yl]-2-(2-nitrobenzenesulfonamido) acetamide] |
| – | 102 | 106 | disappointing | – | – | – | Cc1sc(S(=O)(=O)N2CCSCC2)cc1NC(=O)CNS(=O)(=O)c1cccc([N+](=O)[O-])c1 [Compound K392, N-[2-methyl-5-(thiomorpholine-4-sulfonyl)thiophen-3-yl]-2-(3-nitrobenzenesulfonamido) acetamide] |
| 112 | 106 | 106 | – | – | – | – | Cc1sc(S(=O)(=O)N2CCSCC2)cc1NC(=O)[C@@H](Cc1ccccc1)NS(=O)(=O)c1ccc(F)cc1 [Compound K395, (2R)-2-(4-Fluorobenzenesulfonamido)-N-[2-methyl-5-(thiomorpholine-4-sulfonyl)thiophen-3-yl]-3-phenylpropanamide] |
| 71 | 74 | 130 | – | – | – | – | Cc1sc(S(=O)(=O)N2CCSCC2)cc1NC(=O)[C@H](Cc1ccccc1)NS(=O)(=O)c1ccc(F)cc1 [Compound K396, (2S)-2-(4-Fluorobenzenesulfonamido)-N-[2-methyl-5-(thiomorpholine-4-sulfonyl)thiophen-3-yl]-3-phenylpropanamide] |
| 112 | 105 | 130 | Activity was maintained | – | – | – | O=C(CNS(=O)(=O)c1ccc(F)cc1)Nc1ccc(S(=O)(=O)N2CCSCC2)cc1 [Compound K399, 2-(4-Fluorobenzenesulfonamido)-N-[4-(thiomorpholine-4-sulfonyl)phenyl] acetamide] |
| 94 | 97 | 107 | less active | – | – | – | O=C(CNS(=O)(=O)c1ccc(F)cc1)Nc1cccc(S(=O)(=O)N2CCSCC2)c1 [Compound K400, 2-(4-Fluorobenzenesulfonamido)-N-[3-(thiomorpholine-4-sulfonyl)phenyl]acetamide] |
| 109 | 131 | 161 | nearly as potent as 69 | – | – | – | Cc1sc(S(=O)(=O)N2CCSCC2)cc1NC(=O)CN1C(=O)c2ccccc2S1(=O)=O [Compound K402, N-[2-methyl-5-(thiomorpholine-4-sulfonyl)thiophen-3-yl]-2-(1,1,3-trioxo-2,3-dihydro-1-benzothiazol-2-yl) acetamide] |
| 94 | 107 | 134 | – | – | – | – | Cc1sc(S(=O)(=O)N2CCSCC2)cc1NC(=O)[C@@H](NS(=O)(=O)c1ccc(F)cc1)c1ccccc1 [Compound K409, (2S)-2-(4-Fluorobenzenesulfonamido)-N-[2-methyl-5-(thiomorpholine-4-sulfonyl)thiophen-3-yl]-2-phenylacetamide] |
